Literature values as cited in US20080138409A1, “OLANZAPINE PHARMACEUTICAL COMPOSITION” (priority 2006, published 2008).

Conditions: pH 6.8; free base

## Cc1cc2c(s1)Nc1ccccc1N=C2N1CCN(C)CC1 [Olanzapine]
  solubility: about 0.02 mg/ml
